How the values were obtained:
PA14 = assay: Neonatal mouse lung infection model, lung histopathology; format: in vivo, mice
Procedure: We next assessed the morphological dynamics of PA14 infection in the presence of 2AA in a neonatal mouse lung infection model (Tang et al., Infection & Immunity 64:37-43, 1996), which is relevant to CF. A minimum inoculum of 1.5×10^5 PA14 cells/animal is 100% lethal in this model. Mice were treated with 2AA 4 days pre-infection, sacrificed at 24, 48, and 72 hr post-infection, and lung histopathology was assessed and compared to that of controls. PA14 infection alone produces rapidly developing inflammation that by 24 hr presents with red hepatization and development of lobular pneumonia. By 48 hours, the lung pathology includes most of the parenchyma with extensive formation of bacteria-filled necrotic foci (FIG. 12B). These observations are also consistent with our previous mortality studies using this lung model that indicate 100% mortality by 60 hr.

P. aeruginosa = P. aeruginosa growth kinetics (spectrophotometric analysis at 600 nm); format: cell-based, Pseudomonas aeruginosa; conditions: 2 mM compound, followed over 26 hours at 600 nm (FIG. 4)
Excerpt: P. aeruginosa strains include wild-type (PA14, see Rahme et al., Science 268:1899-1902, 1995); a PA14 mvfR mutant (Cao et al., Proc. Natl. Acad. Sci. USA 98:14613-14618, 2001); a pqsE deletion mutant, generated via pEX18Ap allelic replacement by using sucrose selection (Hoang et al., Gene 212:77-86, 1998), resulting in a 570-bp nonpolar deletion covering 65% of the sequence (Déziel et al. PNAS); and the pqsA (U479) TnphoA mutant obtained from the PA14 Transposon Insertion Mutant Database. Bacteria were grown in LB broth or on 1.5% Bacto-agar (Difco) LB plates. Freshly plated cells served as inoculum.
P. aeruginosa was grown in the presence of 2 mM of 2′-aminoacetophenone (2AA), 3′-aminoacetophenone (3AA), 4′-aminoacetophenone (4AA), or 2′-nitroacetophenone (2NA), or in the absence of any of these compounds (control). Bacterial growth was followed over 26 hours by spectrophotometric analysis at 600 nm.
Bacterial growth was also followed over 35 hours by spectrophotometric analysis at 600 nm.

In the case of `CC(=O)c1ccccc1N` [2AA, 2′-aminoacetophenone], the “development of lung inflammation in response to PA14 infection” value (PA14; 2AA 4 days pre-infection) is reported as “greatly delayed rates of development of inflammation”, the lung histopathology (PA14; PA14 infection 4 days post-2AA treatment, 48 hours (FIG. 12C)) is reported as “Slight peribronchial infiltrate of inflammatory cells is present at 48 hours but no significant interstitial involvement” and the Bacterial growth (P. aeruginosa) is reported as “only slightly retarded”.

Source: patent US20130209515A1, “ANTI-INFECTIVE AND IMMUNOMODULATORY COMPOUNDS” (priority 2005, published 2013)
